Measurements reported in patent US8063071B2 (GlaxoSmithKline, LLC, priority 2007, dated 2011).
Counter-ions that a name gives are not always drawn.

Key:
[1] = test system: human monocyte stimulated cytokine production (TNF-α); assay: Monocyte assay (LPS-stimulated TNF-α production); assay type: cell-based; details: 24 h, 200 ng/mL LPS, TNF-α by ELISA
Procedure: Effect of IKK-β inhibition on human monocyte stimulated cytokine production was assessed as follows: Monocytes were isolated from heparinized whole blood by Ficoll gradient, followed by purification of CD14+ cells using MACS magnetic cell separation beads. Isolated monocytes were then adhered to 96-well culture plates at 1×10^6 cells/mL in RPMI 1640 10% FBS (JRH Biosciences, Lenexa Kans.) for 2 h. Test compounds are added to the wells 30 minutes prior to stimulation with a final vehicle concentration of 0.1% DMSO. Monocytes were activated by the addition of 200 ng/mL endotoxin (LPS; E. coli serotype 026:B6)(Sigma, St. Louis, Mo.) and incubated for 24 hrs at 37 C. Cell-free supernates were analyzed by ELISA for TNF-α using Pharmingen matched pair Abs. Viability of the cells was determined by 10% trypan blue exclusion.

[2] = target: T1, Recombinant human IKKβ (residues 1-737) (Homo sapiens, UniProt O14920); assay: IKK2 assay (TR-FRET); assay type: biochemical; details: ATP 1 μM final, read-out: pIC50 against IKK2 (converted)
T1 construct: Recombinant human IKKβ (residues 1-737); GST (C); made in house
T1 sequence (O14920 1-737): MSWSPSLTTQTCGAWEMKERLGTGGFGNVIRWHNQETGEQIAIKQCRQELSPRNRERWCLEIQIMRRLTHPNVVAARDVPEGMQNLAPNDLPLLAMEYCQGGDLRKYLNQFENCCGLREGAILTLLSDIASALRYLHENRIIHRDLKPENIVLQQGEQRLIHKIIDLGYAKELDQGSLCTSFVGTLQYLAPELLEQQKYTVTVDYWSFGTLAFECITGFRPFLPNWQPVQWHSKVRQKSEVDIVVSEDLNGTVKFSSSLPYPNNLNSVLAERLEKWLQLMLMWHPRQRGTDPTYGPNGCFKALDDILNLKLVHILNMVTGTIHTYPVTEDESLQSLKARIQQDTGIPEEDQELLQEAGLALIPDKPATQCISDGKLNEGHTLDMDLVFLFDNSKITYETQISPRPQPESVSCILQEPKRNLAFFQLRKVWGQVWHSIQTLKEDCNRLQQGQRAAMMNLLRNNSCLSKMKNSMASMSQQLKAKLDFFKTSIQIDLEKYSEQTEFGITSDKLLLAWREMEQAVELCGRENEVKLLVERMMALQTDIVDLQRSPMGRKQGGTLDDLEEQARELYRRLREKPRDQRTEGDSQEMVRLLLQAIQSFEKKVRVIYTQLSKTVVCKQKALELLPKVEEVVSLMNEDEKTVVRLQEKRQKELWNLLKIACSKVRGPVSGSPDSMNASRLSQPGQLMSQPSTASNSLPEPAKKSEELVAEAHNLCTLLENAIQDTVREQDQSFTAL
In short: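 TR-FRET readout (665 nm over 620 nm Eu reference) of GST-IB Ser32/36 phosphorylation after 60 min detection. Reaction: 1 μM ATP, 25 nM substrate, 0.5-5 nM GST-fused IKKβ 1-737 from baculovirus, pH 7.4 HEPES buffer, 1.7% DMSO, 15 min room temperature, EDTA-terminated.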

Row | SMILES | IC50 [1] [nM] | IC50 [2] [nM]
1 | CCS(=O)(=O)N1CCC(c2c[nH]c3c(C(N)=O)cc(-c4cccc(CN5CCCCC5)c4)cc23)CC1 [Example 1, 3-[1-(ethylsulfonyl)-4-piperidinyl]-5-[3-(1-piperidinylmethyl)phenyl]-1H-indole-7-carboxamide] | ≤ 1500 | ≤ 10000
2 | CCS(=O)(=O)N1CCC(c2c[nH]c3c(C(N)=O)cc(-c4cccc(CN5CCNCC5)c4)cc23)CC1 [Example 2, 3-[1-(ethylsulfonyl)-4-piperidinyl]-5-[3-(1-piperazinylmethyl)phenyl]-1H-indole-7-carboxamide] | ≤ 1500 | ≤ 10000
3 | CCS(=O)(=O)N1CCC(c2c[nH]c3c(C(N)=O)cc(-c4cccc(CN5CCOCC5)c4)cc23)CC1 [Example 3, 3-[1-(ethylsulfonyl)-4-piperidinyl]-5-[3-(4-morpholinylmethyl)phenyl]-1H-indole-7-carboxamide] | ≤ 1500 | ≤ 10000
4 | CCS(=O)(=O)N1CCC(c2c[nH]c3c(C(N)=O)cc(-c4cccc(CN(C)CCS(C)(=O)=O)c4)cc23)CC1 [Example 4, 3-[1-(ethylsulfonyl)-4-piperidinyl]-5-[3-({methyl[2-(methylsulfonyl)ethyl]amino}methyl)phenyl]-1H-indole-7-carboxamide] | > 1000 | ≤ 10000
5 | CCS(=O)(=O)N1CCC(c2c[nH]c3c(C(N)=O)cc(-c4cccc(CN(C)CCN(C)C)c4)cc23)CC1 [Example 5, 5-(3-{[[2-(dimethylamino)ethyl](methyl)amino]methyl}phenyl)-3-[1-(ethylsulfonyl)-4-piperidinyl]-1H-indole-7-carboxamide] | ≤ 1500 | ≤ 10000
6 | CCS(=O)(=O)N1CCC(c2c[nH]c3c(C(N)=O)cc(-c4cccc(CN5CCN(CCOCCO)CC5)c4)cc23)CC1 [Example 6, 3-[1-(ethylsulfonyl)-4-piperidinyl]-5-{3-[(4-{2-[(2-hydroxyethyl)oxy]ethyl}-1-Piperazinyl)methyl]phenyl}-1H-indole-7-carboxamide] | ≤ 1500 | ≤ 10000
7 | CCS(=O)(=O)N1CCC(c2c[nH]c3c(C(N)=O)cc(-c4cccc(CN5CCCC(CO)C5)c4)cc23)CC1 (centres unmarked) [Example 7, 3-[1-(ethylsulfonyl)-4-piperidinyl]-5-(3-{[3-(hydroxymethyl)-1-piperidinyl]methyl}phenyl)-1H-indole-7-carboxamide] | ≤ 1500 | ≤ 10000
8 | CCS(=O)(=O)N1CCC(c2c[nH]c3c(C(N)=O)cc(-c4cccc(CN(CCOC)CCOC)c4)cc23)CC1 [Example 8, 5-[3-({bis[2-(methyloxy)ethyl]amino}methyl)phenyl]-3-[1-(ethylsulfonyl)-4-piperidinyl]-1H-indole-7-carboxamide] | ≤ 1500 | ≤ 10000
9 | CCS(=O)(=O)N1CCC(c2c[nH]c3c(C(N)=O)cc(-c4cccc(CN5CC(C)OC(C)C5)c4)cc23)CC1 (centres unmarked) [Example 9, 5-{3-[(2,6-dimethyl-4-morpholinyl)methyl]phenyl}-3-[1-(ethylsulfonyl)-4-piperidinyl]-1H-indole-7-carboxamide] | ≤ 1500 | ≤ 10000
10 | CCS(=O)(=O)N1CCC(c2c[nH]c3c(C(N)=O)cc(-c4cccc(CN5CCCC5c5nccs5)c4)cc23)CC1 (centres unmarked) [Example 10, 3-[1-(ethylsulfonyl)-4-piperidinyl]-5-(3-{[2-(1,3-thiazol-2-yl)-1-pyrrolidinyl]methyl}phenyl)-1H-indole-7-carboxamide] | ≤ 1500 | ≤ 10000
11 | CCS(=O)(=O)N1CCC(c2c[nH]c3c(C(N)=O)cc(-c4cccc(CN5CCCC5c5cccs5)c4)cc23)CC1 (centres unmarked) [Example 11, 3-[1-(ethylsulfonyl)-4-piperidinyl]-5-(3-{[2-(2-thienyl)-1-pyrrolidinyl]methyl}phenyl)-1H-indole-7-carboxamide] | ≤ 1500 | ≤ 10000
12 | CCS(=O)(=O)N1CCC(c2c[nH]c3c(C(N)=O)cc(-c4cccc(CN(C)CC(O)c5ccccc5)c4)cc23)CC1 (centres unmarked) [Example 12, 3-[1-(ethylsulfonyl)-4-piperidinyl]-5-(3-{[(2-hydroxy-2-phenylethyl)-(methyl)amino]methyl}phenyl)-1H-indole-7-carboxamide] | ≤ 1500 | ≤ 10000
13 | CCN(C)Cc1cccc(-c2cc(C(N)=O)c3[nH]cc(C4CCN(S(=O)(=O)CC)CC4)c3c2)c1 [Example 13, 5-(3-{[ethyl(methyl)amino]methyl}phenyl)-3-[1-(ethylsulfonyl)-4-piperidinyl]-1H-indole-7-carboxamide] | ≤ 1500 | ≤ 10000
14 | CCS(=O)(=O)N1CCC(c2c[nH]c3c(C(N)=O)cc(-c4cccc(CNC5CCCC5)c4)cc23)CC1 [Example 15, 5-{3-[(cyclopentylamino)methyl]phenyl}-3-[1-(ethylsulfonyl)-4-piperidinyl]-1H-indole-7-carboxamide] | > 1000 | ≤ 10000
15 | CCS(=O)(=O)N1CCC(c2c[nH]c3c(C(N)=O)cc(-c4cccc(CNCc5ccc(O)c(O)c5)c4)cc23)CC1 [Example 16, 5-[3-({[(3,4-dihydroxyphenyl)methyl]amino}methyl)phenyl]-3-[1-(ethylsulfonyl)-4-piperidinyl]-1H-indole-7-carboxamide] | ≤ 1500 | ≤ 10000

Further lines, results first:

Row | IC50 [1] [nM] | IC50 [2] [nM] | SMILES
16 | ≤ 1500 | ≤ 10000 | CCS(=O)(=O)N1CCC(c2c[nH]c3c(C(N)=O)cc(-c4cccc(CNCc5ccsc5)c4)cc23)CC1 [Example 17, 3-[1-(ethylsulfonyl)-4-piperidinyl]-5-(3-{[(3-thienylmethyl)amino]methyl}phenyl)-1H-indole-7-carboxamide]
17 | ≤ 1500 | ≤ 10000 | CCS(=O)(=O)N1CCC(c2c[nH]c3c(C(N)=O)cc(-c4cccc(CN[C@@H](CO)C(C)C)c4)cc23)CC1 [Example 18, 3-[1-(ethylsulfonyl)-4-piperidinyl]-5-[3-({[(1R)-1-(hydroxymethyl)-2-methylpropyl]amino}methyl)phenyl]-1H-indole-7-carboxamide]
18 | ≤ 1500 | ≤ 10000 | CCS(=O)(=O)N1CCC(c2c[nH]c3c(C(N)=O)cc(-c4cccc(CNC(C)CO)c4)cc23)CC1 (centres unmarked) [Example 19, 3-[1-(ethylsulfonyl)-4-piperidinyl]-5-(3-{[(2-hydroxy-1-methylethyl)amino]methyl}phenyl)-1H-indole-7-carboxamide]
19 | ≤ 1500 | ≤ 10000 | CCS(=O)(=O)N1CCC(c2c[nH]c3c(C(N)=O)cc(-c4cccc(CN[C@H]5CC[C@H](O)CC5)c4)cc23)CC1 [Example 20, 3-[1-(ethylsulfonyl)-4-piperidinyl]-5-(3-{[(trans-4-hydroxycyclohexyl)amino]methyl}phenyl)-1H-indole-7-carboxamide]
20 | ≤ 1500 | ≤ 10000 | CCS(=O)(=O)N1CCC(c2c[nH]c3c(C(N)=O)cc(-c4cccc(CNC[C@H](C)O)c4)cc23)CC1 [Example 22, 3-[1-(ethylsulfonyl)-4-piperidinyl]-5-[3-({[(2S)-2-hydroxypropyl]amino}methyl)phenyl]-1H-indole-7-carboxamide]
21 | ≤ 1500 | ≤ 10000 | CCNCc1cccc(-c2cc(C(N)=O)c3[nH]cc(C4CCN(S(=O)(=O)CC)CC4)c3c2)c1 [Example 23, 5-{3-[(ethylamino)methyl]phenyl}-3-[1-(ethylsulfonyl)-4-piperidinyl]-1H-indole-7-carboxamide]
22 | ≤ 1500 |  | CCS(=O)(=O)N1CCC(c2c[nH]c3c(C(N)=O)cc(-c4ccc(CNCC(C)C)s4)cc23)CC1 [Example 243, 3-[1-(ethylsulfonyl)-4-piperidinyl]-5-(5-{[(2-methylpropyl)amino]methyl}-2-thienyl)-1H-indole-7-carboxamide trifluoroacetate]
23 | ≤ 1500 |  | CCOCCN(C)Cc1cc(-c2cc(C(N)=O)c3[nH]cc(C4CCN(S(=O)(=O)CC)CC4)c3c2)cs1 [Example 403, 5-(5-{[[2-(ethyloxy)ethyl](methyl)amino]methyl}-3-thienyl)-3-[1-(ethylsulfonyl)-4-piperidinyl]-1H-indole-7-carboxamide]
